Assay results taken from patent US11407737B2, “Inhibitors of RAF kinases” (Kinnate Biopharma Inc., priority 2020, dated 2022).
Structures can show the parent of a compound that is named as a salt. Where two headings read alike, the source gives them in different places.

Biological target: human RAF1 (Homo sapiens (Human), UniProt P04049)
Assay: Protein kinase assay (radiometric 33P-ATP, MEK1 (K97R) substrate), RAF-1
Type: biochemical
Method: Example 1: Kinase Assay Protocol
Assay platform was used to measure kinase/inhibitor interactions as described previously (Anastassiadis et al., 2011). In brief, for each reaction, kinase and substrate were mixed in a buffer containing 20 mM HEPES (pH 7.5), 10 mM MgCl2, 1 mM EGTA, 0.02% Brij35, 0.02 mg/mL BSA, 0.1 mM Na3VO4, 2 mM DTT, and 1% DMSO. All compounds were solubilized in DMSO. Compounds were then added to each reaction mixture via acoustic dispense using an ECHO 550 nanoliter dispenser. For human RAF1 testing, human MEK1 (K97R) was used as a substrate at a concentration of 3 micromolar, with a final ATP concentration of 10 micromolar. For human BRAF testing, human MEK1 (K97R) was used as a substrate at 1 micromolar concentration, with a final ATP concentration of 25 micromolar. […] After a 20-min incubation, ATP (Sigma-Aldrich, St. Louis, Mo. 63178) and [g33P] ATP (specific activity 10 microCi/microliter) purchased at PerkinElmer (Boston, Mass., 02118 Cat #BLU 003H250UC) were added at a final total concentration of […]. Reactions were carried out at room temperature for 2 hr and spotted onto P81 ion exchange cellulose chromatography paper (Reaction Biology). Filter paper was washed in 0.75% phosphoric acid to remove unincorporated ATP. The percent remaining kinase activity relative to a vehicle-containing (DMSO) kinase reaction was calculated for each kinase/inhibitor pair. IC50 values were calculated using Prism 5 (GraphPad).

[1] = human MEK1 (K97R) substrate 3 micromolar, ATP 10 micromolar, 10-dose, 3-fold serial dilution starting at 10 micromolar, read-out: RAF-1 IC50

human RAF1, sequence (P04049 whole entry): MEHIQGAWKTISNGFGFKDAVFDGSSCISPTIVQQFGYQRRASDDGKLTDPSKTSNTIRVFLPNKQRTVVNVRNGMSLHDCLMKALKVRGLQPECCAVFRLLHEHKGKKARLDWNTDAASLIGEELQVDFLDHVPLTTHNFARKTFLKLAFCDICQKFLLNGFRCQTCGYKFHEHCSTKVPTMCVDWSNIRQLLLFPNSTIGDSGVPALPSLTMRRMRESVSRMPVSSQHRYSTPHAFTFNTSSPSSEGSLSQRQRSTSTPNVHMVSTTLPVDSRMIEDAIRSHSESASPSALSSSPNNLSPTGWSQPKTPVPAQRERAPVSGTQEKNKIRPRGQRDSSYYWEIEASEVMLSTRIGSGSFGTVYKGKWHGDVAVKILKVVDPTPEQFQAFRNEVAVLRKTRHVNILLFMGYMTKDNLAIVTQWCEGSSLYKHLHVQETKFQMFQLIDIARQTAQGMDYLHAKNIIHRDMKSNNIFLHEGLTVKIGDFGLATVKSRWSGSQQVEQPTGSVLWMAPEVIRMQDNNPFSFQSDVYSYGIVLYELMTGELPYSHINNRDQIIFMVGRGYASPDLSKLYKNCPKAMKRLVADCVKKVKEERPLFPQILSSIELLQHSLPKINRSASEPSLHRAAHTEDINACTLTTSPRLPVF

Row | SMILES | IC50 [1] [nM] | IC50 [nM]
1 | CNC(=O)c1cc(-c2cc(NC(=O)N3CC[C@@H](CC(F)(F)F)C3)ccc2C)cc(N2CCOCC2)n1 [Example 3, N-methyl-4-[2-methyl-5-[(3S)-3-(2,2,2-trifluoroethyl)pyrrolidine-1-carbonylamino]phenyl]-6-(morpholin-4-yl)pyridine-2-carboxamide] | 1 to 10 | –
2 | Cc1ccc(NC(=O)N2CC[C@@H](CC(F)(F)F)C2)cc1-c1cc(CO)nc(N2CCOCC2)c1 [Example 60, (3S)—N-[3-[2-(hydroxymethyl)-6-(morpholin-4-yl)pyridin-4-yl]-4-methylphenyl]-3-(2,2,2-trifluoroethyl)pyrrolidine-1-carboxamide] | 1 to 10 | –
3 | Cc1cc(F)c(NC(=O)N2CC[C@@H](CC(F)(F)F)C2)cc1-c1cc(-c2cnn(C)c2)nc(N2CCOCC2)c1 [Example 74, (3S)—N-{2-fluoro-4-methyl-5-[2-(1-methylpyrazol-4-yl)-6-(morpholin-4-yl)pyridin-4-yl]phenyl}-3-(2,2,2-trifluoroethyl)pyrrolidine-1-carboxamide] | < 1 | –
4 | Cc1ccc(NC(=O)N2CC[C@@H](CC(F)(F)F)C2)cc1-c1cc(C(=O)N2CC(C)(O)C2)nc(N2CCOCC2)c1 [Example 21, (3S)—N-[3-[2-(3-hydroxy-3-methylazetidine-1-carbonyl)-6-(morpholin-4-yl)pyridin-4-yl]-4-methylphenyl]-3-(2,2,2-trifluoroethyl)pyrrolidine-1-carboxamide] | < 1 | –
5 | Cc1ccc(NC(=O)N2CC[C@@H](CC(F)(F)F)C2)cc1-c1cc(C(=O)NC[C@@H](C)O)nc(N2CCOCC2)c1 [Example 5, N-[(2R)-2-hydroxypropyl]-4-[2-methyl-5-[(3S)-3-(2,2,2-trifluoroethyl)pyrrolidine-1-carbonylamino]phenyl]-6-(morpholin-4-yl)pyridine-2-carboxamide] | – | 1 to 10
6 | Cc1cc(F)c(NC(=O)N2CC[C@@H](C(F)(F)F)C2)cc1-c1cc(-c2cnn(C)c2)nc(N2CCOCC2)c1 [Example 75, (3R)—N-{2-fluoro-4-methyl-5-[2-(1-methylpyrazol-4-yl)-6-(morpholin-4-yl)pyridin-4-yl]phenyl}-3-(trifluoromethyl)pyrrolidine-1-carboxamide] | < 1 | –
7 | Cc1cc(F)c(NC(=O)N2CCO[C@H](C(F)(F)F)C2)cc1-c1cc(-c2cnn(C)c2)nc(N2CCOCC2)c1 [Example 67, (2S)—N-{2-fluoro-4-methyl-5-[2-(1-methylpyrazol-4-yl)-6-(morpholin-4-yl)pyridin-4-yl]phenyl}-2-(trifluoromethyl)morpholine-4-carboxamide] | < 1 | –
8 | CCn1cc(-c2cc(-c3cc(NC(=O)N4CC[C@@H](CC(F)(F)F)C4)ccc3C)cc(N3CCOCC3)n2)cn1 [Example 78, (3S)—N-{3-[2-(1-ethylpyrazol-4-yl)-6-(morpholin-4-yl)pyridin-4-yl]-4-methylphenyl}-3-(2,2,2-trifluoroethyl)pyrrolidine-1-carboxamide] | < 1 | –
9 | Cc1ccc(NC(=O)N2CC[C@@H](CC(F)(F)F)C2)cc1-c1cc(C#CC(C)N)nc(N2CCOCC2)c1 (stereo partly drawn) [Example 55, (3S)—N-{3-[2-(3-aminobut-1-yn-1-yl)-6-(morpholin-4-yl)pyridin-4-yl]-4-methylphenyl}-3-(2,2,2-trifluoroethyl)pyrrolidine-1-carboxamide] | 1 to 10 | –
10 | Cc1ccc(NC(=O)N2CC[C@@H](CC(F)(F)F)C2)cc1-c1cc(-c2ccnc(N)c2)nc(N2CCOCC2)c1 [Example 40, (3S)—N-[3-[2′-amino-6-(morpholin-4-yl)-[2,4′-bipyridin]-4-yl]-4-methylphenyl]-3-(2,2,2-trifluoroethyl)pyrrolidine-1-carboxamide] | 1 to 10 | –
11 | Cc1ccc(NC(=O)N2CC[C@@H](CC(F)(F)F)C2)cc1-c1cc(C2CCCNC2)nc(N2CCOCC2)c1 (stereo partly drawn) [Example 28, (3S)—N-[4-methyl-3-[2-(morpholin-4-yl)-6-(piperidin-3-yl)pyridin-4-yl]phenyl]-3-(2,2,2-trifluoroethyl)pyrrolidine-1-carboxamide] | 10 to 100 | –
12 | Cc1ccc(NC(=O)N2CC[C@@H](CC(F)(F)F)C2)cc1-c1cc(C2CCN(C)CC2)nc(N2CCOCC2)c1 [Example 39, (S)—N-(4-methyl-3-(2-(1-methylpiperidin-4-yl)-6-morpholinopyridin-4-yl)phenyl)-3-(2,2,2-trifluoroethyl)pyrrolidine-1-carboxamide formate] | 1 to 10 | –
13 | Cc1ccc(NC(=O)N2CCO[C@@H](C(F)(F)F)C2)cc1-c1cc(-c2cnn(C)c2)nc(N2CCOCC2)c1 [Example 63, (2R)—N-{4-methyl-3-[2-(1-methylpyrazol-4-yl)-6-(morpholin-4-yl)pyridin-4-yl]phenyl}-2-(trifluoromethyl)morpholine-4-carboxamide] | 1 to 10 | –
14 | Cc1ccc(NC(=O)N2CC[C@@H](CC(F)(F)F)C2)cc1-c1cc(C(=O)NCC(C)(C)O)nc(N2CCOCC2)c1 [Example 9, N-(2-hydroxy-2-methylpropyl)-4-[2-methyl-5-[(3S)-3-(2,2,2-trifluoroethyl)pyrrolidine-1-carbonylamino]phenyl]-6-(morpholin-4-yl)pyridine-2-carboxamide] | 1 to 10 | –
15 | Cc1ccc(NC(=O)N2CC[C@@H](CC(F)(F)F)C2)cc1-c1cc(-c2cnc(O)o2)nc(N2CCOCC2)c1 [Example 26, (3S)—N-[3-[2-(2-hydroxy-1,3-oxazol-5-yl)-6-(morpholin-4-yl)pyridin-4-yl]-4-methylphenyl]-3-(2,2,2-trifluoroethyl)pyrrolidine-1-carboxamide] | < 1 | –
16 | Cc1ccc(NC(=O)N2CC[C@@H](CC(F)(F)F)C2)cc1-c1cc(-c2cnn(CCO)c2)nc(N2CCOCC2)c1 [Example 58, (3S)—N-(3-(2-(1-(2-hydroxyethyl)-1H-pyrazol-4-yl)-6-morpholinopyridin-4-yl)-4-methylphenyl)-3-(2,2,2-trifluoroethyl)pyrrolidine-1-carboxamide] | 1 to 10 | –
17 | Cc1ccc(NC(=O)N2CC[C@@H](CC(F)(F)F)C2)cc1-c1cc(-c2c(C)n[nH]c2C)nc(N2CCOCC2)c1 [Example 51, (3S)—N-[3-[2-(3,5-dimethyl-1H-pyrazol-4-yl)-6-(morpholin-4-yl)pyridin-4-yl]-4-methylphenyl]-3-(2,2,2-trifluoroethyl)pyrrolidine-1-carboxamide] | 1 to 10 | –
18 | Cc1cc(-c2cc(NC(=O)N3CC[C@@H](CC(F)(F)F)C3)c(F)cc2C)cc(N2CCOCC2)n1 [Example 70, (3S)—N-{2-fluoro-4-methyl-5-[2-methyl-6-(morpholin-4-yl)pyridin-4-yl]phenyl}-3-(2,2,2-trifluoroethyl)pyrrolidine-1-carboxamide] | < 1 | –
19 | Cc1ccc(NC(=O)N2CC[C@@H](CC(F)(F)F)C2)cc1-c1cc(C(=O)N(C)CCO)nc(N2CCOCC2)c1 [Example 18, N-(2-hydroxyethyl)-N-methyl-4-[2-methyl-5-[(3S)-3-(2,2,2-trifluoroethyl)pyrrolidine-1-carbonylamino]phenyl]-6-(morpholin-4-yl)pyridine-2-carboxamide] | < 1 | –
20 | Cc1ccc(NC(=O)N2CC[C@@H](CC(F)(F)F)C2)cc1-c1cc(C(=O)N[C@H](C)CO)nc(N2CCOCC2)c1 [Example 6, N-[(2R)-1-hydroxypropan-2-yl]-4-[2-methyl-5-[(3S)-3-(2,2,2-trifluoroethyl)pyrrolidine-1-carbonylamino]phenyl]-6-(morpholin-4-yl)pyridine-2-carboxamide] | 1 to 10 | –
21 | CCc1cc(-c2cc(NC(=O)N3CC[C@@H](CC(F)(F)F)C3)c(F)cc2C)cc(N2CCOCC2)n1 [Example 72, (3S)—N-{5-[2-ethyl-6-(morpholin-4-yl)pyridin-4-yl]-2-fluoro-4-methylphenyl}-3-(2,2,2-trifluoroethyl)pyrrolidine-1-carboxamide] | < 1 | –
22 | Cc1cc(F)c(NC(=O)N2CC[C@H](C(F)(F)C(F)(F)F)C2)cc1-c1cc(-c2cnn(C)c2)nc(N2CCOCC2)c1 (single isomer, unassigned) [Example 81] | 1 to 10 | –
23 | Cc1ccc(NC(=O)N2CC[C@@H](CC(F)(F)F)C2)cc1-c1cc(-c2cnn(C)c2C)nc(N2CCOCC2)c1 [Example 48, (3S)—N-[3-[2-(1,5-dimethylpyrazol-4-yl)-6-(morpholin-4-yl)pyridin-4-yl]-4-methylphenyl]-3-(2,2,2-trifluoroethyl)pyrrolidine-1-carboxamide] | < 1 | –
24 | Cc1ccc(NC(=O)N2CC[C@@H](OC(F)(F)F)C2)cc1-c1cc(-c2cnn(C)c2)nc(N2CCOCC2)c1 [Example 64, (3R)—N-{4-methyl-3-[2-(1-methylpyrazol-4-yl)-6-(morpholin-4-yl)pyridin-4-yl]phenyl}-3-(trifluoromethoxy)pyrrolidine-1-carboxamide] | 1 to 10 | –
25 | Cc1ccc(NC(=O)N2CC[C@@H](CC(F)(F)F)C2)cc1-c1cc(-c2cn(C)nc2C)nc(N2CCOCC2)c1 [Example 37, (3S)—N-[3-[2-(1,3-dimethylpyrazol-4-yl)-6-(morpholin-4-yl)pyridin-4-yl]-4-methylphenyl]-3-(2,2,2-trifluoroethyl)pyrrolidine-1-carboxamide] | 1 to 10 | –
